Our source for the EC50 and Ki values is US7405240B2, “Substituted cyclopentanes or cyclopentanones as therapeutic agents” (Allergan, Inc., priority 2006, dated 2008).

Assay [1] deals with T1, hEP2 (Homo sapiens, UniProt P43116). Kind of assay: cAMP assay, hEP2. The class given is cell-based.
Assay [2] concerns the target T2, hEP4 (Homo sapiens, UniProt P35408). The assay can be described thus: FLIPR calcium signal, hEP4. It is filed as cell-based. The settings on record: HEK-293(EBNA) cells expressing hEP4/Gqs5. Also noted: expressed in transfected cells; host or cells: HEK-293(EBNA). The protocol: (§1) Methods for FLIPR™ Studies
(§2) HEK-293(EBNA) cells, stably expressing one type or subtype of recombinant human prostaglandin receptors (prostaglandin receptors expressed: hDP/Gqs5; hEP1; hEP2/Gqs5; hEP3A/Gqi5; hEP4/Gqs5; hFP; hIP; hTP), were cultured in 100 mm culture dishes in high-glucose DMEM medium containing 10% fetal bovine serum, 2 mM 1-glutamine, 250 μg/ml geneticin (G418) and 200 μg/ml hygromycin B as selection markers, and 100 units/ml penicillin G, 100 μg/ml streptomycin and 0.25 μg/ml amphotericin B.
(§3) Cells were seeded at a density of 5×10^4 cells per well in Biocoat® Poly-D-lysine-coated black-wall, clear-bottom 96-well plates (Becton-Dickinson) and allowed to attach overnight in an incubator at 37° C. Cells were then washed two times with HBSS-HEPES buffer (Hanks Balanced Salt Solution without bicarbonate and phenol red, 20 mM HEPES, pH 7.4) using a Denley Cellwash plate washer (Labsystems). After 45 minutes of dye-loading in the dark, using the calcium-sensitive dye Fluo-4 AM at a final concentration of 2 μM, plates were washed four times with HBSS-HEPES buffer to remove excess dye leaving 100 μl in each well. Plates were re-equilibrated to 37° C. for a few minutes.
(§4) Cells were excited with an Argon laser at 488 nm, and emission was measured through a 510-570 nm bandwidth emission filter (FLIPR™, Molecular Devices, Sunnyvale, Calif.). Drug solution was added in a 50 μl volume to each well to give the desired final concentration. The peak increase in fluorescence intensity was recorded for each well. On each plate, four wells each served as negative (HBSS-HEPES buffer) and positive controls (standard agonists: BW245C (hDP); PGE2 (hEP1; hEP2/Gqs5; hEP3A/Gqi5; hEP4/Gqs5); PGF2α (hFP); carbacyclin (hIP); U-46619 (hTP), depending on receptor). The peak fluorescence change in each drug-containing well was then expressed relative to the controls.
(§5) Compounds were tested in a high-throughput (HTS) or concentration-response (CoRe) format. In the HTS format, forty-four compounds per plate were examined in duplicates at a concentration of 10^−5 M. To generate concentration-response curves, four compounds per plate were tested in duplicates in a concentration range between 10^−5 and 10^−11 M. The duplicate values were averaged. In either, HTS or CoRe format each compound was tested on at least 3 separate plates using cells from different passages to give an n≧3.

The target of assay [3] is T1, hEP2. The assay can be described thus: Competition binding, [3H]PGE2, human EP2 receptors. The settings on record: [3H]PGE2, HEK 293 cells stably expressing human EP2; read-out: hEP2 Ki. Also noted: expressed in transfected cells; host or cells: HEK 293. The protocol: Competition binding experiments were performed in a medium containing Hank's balanced salt solution, Hepes 20 mM, pH 7.3, membranes (˜60 μg protein) or 2×10^5 cells from HEK 293 cells stably expressing human EP2 receptors, [^3H]PGE2 (10 nM) and various concentrations of test compounds in a total volume of 300 μl. Reaction mixtures were incubated at 23° C. for 60 min, and were filtered over Whatman GF/B filters under vacuum. Filters were washed three times with 5 ml ice-cold buffer containing 50 mM Tris/HCl (pH 7.3). Non-specific binding was estimated in the presence of excess unlabeled PGE2 (10 μM). Binding data fitted to the binding model for a single class of binding sites, using nonlinear regression analysis. IC50 values thus obtained were converted to Ki using the equation of Ki=(IC50/(1+[L]/KD) where [L] represents PGE2 concentration (10 nM) and KD the dissociation constant for [^3H]PGE2 at human EP2 receptors (40 nM).
(§6) HEK-293 cells stably expressing the human or feline FP receptor, or EP1, EP2, or EP4 receptors were washed with TME buffer, scraped from the bottom of the flasks, and homogenized for 30 sec using a Brinkman PT 10/35 polytron. TME buffer was added to achieve a final 40 ml volume in the centrifuge tubes (the composition of TME is 100 mM TRIS base, 20 mM MgCl2, […]; 10N HCl is added to achieve a pH of 7.4).
(§7) The cell homogenate was centrifuged at 19000 r.p.m. for 20 min at 4° C. using a Beckman Ti-60 rotor. The resultant pellet was resuspended in TME buffer to give a final 1 mg/ml protein concentration, as determined by Biorad assay. Radioligand binding competition assays vs. [3H-] 17-phenyl PGF2, (5 nM) were performed in a 100 μl volume for 60 min. Binding reactions were started by adding plasma membrane fraction. The reaction was terminated by the addition of 4 ml ice-cold TRIS-HCl buffer and rapid filtration through glass fiber GF/B filters using a Brandel cell harvester. The filters were washed 3 times with ice-cold buffer and oven dried for one hour.
(§8) [^3H-] PGE2 (specific activity 180 Ci mmol) was used as the radioligand for EP receptors. [^3H] 17-phenyl PGF2, was employed for FP receptor binding studies. Binding studies employing EP1, EP2, EP4 and FP receptors were performed in duplicate in at least three separate experiments. A […] assay volume was used. Incubations were for 60 min at 25° C. and were terminated by the addition of 4 ml of ice-cold 50 mM TRIS-HCl, followed by rapid filtration through Whatman GF/B filters and three additional 4 ml washes in a cell harvester (Brandel). Competition studies were performed using a final concentration of 5 nM [^3H]-PGE2, or 5 nM [^3H] 17-phenyl PGF2, and non-specific binding determined with 10^−5M of unlabeled PGE2, or 17-phenyl PGF2α, according to receptor subtype studied.

Assay [4] deals with T1, hEP2. The assay can be described thus: FLIPR calcium signal, hEP2. The class given is cell-based. Also noted: expressed in transfected cells; host or cells: HEK-293(EBNA). The settings on record: HEK-293(EBNA) cells expressing hEP2/Gqs5. The protocol: as §1, §2, §3, §4, §5
The target of assay [5] is T2, hEP4. The assay can be described thus: Radioligand binding, EP4 receptor. Also noted: expressed in transfected cells; host or cells: HEK-293. The settings on record: [3H]PGE2, HEK-293 cells expressing EP4. The protocol:
as §6, §7, §8

T2 sequence (P35408 whole entry): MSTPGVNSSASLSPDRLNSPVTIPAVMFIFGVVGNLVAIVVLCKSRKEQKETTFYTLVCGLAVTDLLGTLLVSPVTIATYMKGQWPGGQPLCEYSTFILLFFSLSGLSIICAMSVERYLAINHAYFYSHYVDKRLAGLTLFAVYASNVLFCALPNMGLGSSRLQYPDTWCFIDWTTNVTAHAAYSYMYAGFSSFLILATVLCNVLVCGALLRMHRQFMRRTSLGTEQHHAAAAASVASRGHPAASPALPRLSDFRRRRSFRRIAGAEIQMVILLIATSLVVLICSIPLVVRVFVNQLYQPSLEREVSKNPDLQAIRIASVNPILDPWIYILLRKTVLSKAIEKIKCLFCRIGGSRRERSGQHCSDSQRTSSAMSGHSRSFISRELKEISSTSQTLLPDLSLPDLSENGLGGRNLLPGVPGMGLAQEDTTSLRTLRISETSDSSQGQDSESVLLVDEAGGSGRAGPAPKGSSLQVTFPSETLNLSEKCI
T1 sequence (P43116 whole entry): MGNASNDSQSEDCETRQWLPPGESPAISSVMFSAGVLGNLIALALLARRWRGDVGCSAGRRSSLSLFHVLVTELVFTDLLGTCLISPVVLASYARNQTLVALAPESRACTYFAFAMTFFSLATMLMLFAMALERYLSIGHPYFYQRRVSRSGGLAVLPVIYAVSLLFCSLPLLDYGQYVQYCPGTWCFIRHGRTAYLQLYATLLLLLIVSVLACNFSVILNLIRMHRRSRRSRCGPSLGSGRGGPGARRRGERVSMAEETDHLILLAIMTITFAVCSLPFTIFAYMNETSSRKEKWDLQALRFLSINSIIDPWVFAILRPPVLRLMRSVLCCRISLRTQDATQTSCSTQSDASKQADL

With `O=C(O)CCCCCC[C@@H]1[C@@H](COc2cc(C(F)(F)F)cc(C(F)(F)F)c2)[C@H](O)C[C@H]1Cl` [Example 16, (Z)-7-[(1R,2S,3R,5R)-2-(3,5-Bis-trifluoromethyl-phenoxymethyl)-5-chloro-3-hydroxy-cyclopentyl]-heptanoic acid], the EC50 on hEP2 [1] stood at 40 nM; at hEP4 [2], 13100 nM; on hEP2 [4], 100 nM. Further, the Ki at hEP2 [3] came out at 45 nM; at hEP4 [5], 4110 nM.

On to `O=C(O)CCC/C=C\C[C@@H]1[C@@H](COc2ccc3ccccc3c2)[C@H](O)C[C@H]1Cl` [Example 17, (Z)-7-[(1R,2S,3R,5R)-5-Chloro-3-hydroxy-2-(naphthalen-2-yloxymethyl)-cyclopentyl]-hept-5-enoic acid], for which the EC50 is 27 nM on hEP2 [1], 3420 nM at hEP4 [2] and 301 nM on hEP2 [4]. Further, the inhibition constant Ki at hEP2 [3] came out at 61 nM; on hEP4 [5] it was 507 nM.

On to `O=C(O)CCCCCC[C@@H]1[C@@H](COc2ccc3ccccc3c2)[C@H](O)C[C@H]1Cl` [Example 18, (Z)-7-[(1R,2S,3R,5R)-5-Chloro-3-hydroxy-2-(naphthalen-2-yloxymethyl)-cyclopentyl]-heptanoic acid], for which the EC50 stood at 65 nM on hEP2 [1], 6310 nM on hEP4 [2] and 453 nM at hEP2 [4]. Also, the inhibition constant (Ki) was determined as 89 nM on hEP2 [3] and 973 nM at hEP4 [5].

Take `O=C(O)CCCCCC[C@@H]1[C@@H](COc2cccc3ccccc23)[C@H](O)C[C@H]1Cl` [Example 20, (Z)-7-[(1R,2S,3R,5R)-5-Chloro-3-hydroxy-2-(naphthalen-1-yloxymethyl)-cyclopentyl]-heptanoic acid]: the EC50 stood at 28 nM on hEP2 [1], 2740 nM on hEP4 [2] and 82 nM on hEP2 [4]. Also, the figures for the inhibitory constant (Ki) at hEP2 [3] and at hEP4 [5] were 163 nM and 351 nM, respectively.

For the molecule `O=C(O)CCC/C=C\C[C@@H]1[C@@H](COc2ccccc2Cl)[C@H](O)C[C@H]1Cl` [Example 21, (Z)-7-[(1R,2S,3R,5R)-5-Chloro-2-(2-chloro-phenoxymethyl)-3-hydroxy-cyclopentyl]-hept-5-enoic acid], the half-maximal effective concentration (EC50) is 37 nM on hEP2 [1], 449 nM at hEP4 [2] and 26 nM on hEP2 [4]. The Ki on hEP2 [3] turned out to be 303 nM; on hEP4 [5] it was 5010 nM.

Turning to `O=C(O)CCC/C=C\C[C@@H]1[C@@H](COc2cccc(Cl)c2)[C@H](O)C[C@H]1Cl` [Example 22, (Z)-7-[(1R,2S,3R,5R)-5-Chloro-2-(3-chloro-phenoxymethyl)-3-hydroxy-cyclopentyl]-hept-5-enoic acid], the EC50 on hEP2 [1] amounted to 5 nM; at hEP4 [2] it was 823 nM; at hEP2 [4], 18 nM. For the same molecule, the Ki is 43 nM on hEP2 [3] and more than 10000 nM at hEP4 [5].

As to `O=C(O)CCC/C=C\C[C@@H]1[C@@H](COc2ccc(Cl)cc2)[C@H](O)C[C@H]1Cl` [Example 23, (Z)-7-[(1R,2S,3R,5R)-5-Chloro-2-(4-chloro-phenoxymethyl)-3-hydroxy-cyclopentyl]-hept-5-enoic acid], the EC50 came out at 10 nM at hEP2 [1], 2860 nM at hEP4 [2] and 45 nM on hEP2 [4]. The Ki was 32 nM at hEP2 [3] and 3220 nM on hEP4 [5].

For `Cc1ccc(OC[C@@H]2[C@@H](C/C=C\CCCC(=O)O)[C@H](Cl)C[C@H]2O)c(C)c1` [Example 33, (Z)-7-[(1R,2S,3R,5R)-5-Chloro-2-(2,4-dimethyl-phenoxymethyl)-3-hydroxy-cyclopentyl]-hept-5-enoic acid], the results for the 50% effective concentration (EC50) on hEP2 [1], at hEP4 [2] and on hEP2 [4] were 72 nM, 7250 nM and 277 nM, respectively. Moreover, at hEP2 [3], the inhibition constant Ki stood at 620 nM.

As to `O=C(O)CCC/C=C\C[C@@H]1[C@@H](COc2cccc3c2CCC3=O)[C@H](O)C[C@H]1Cl` [Example 58, (Z)-7-[(1R,2S,3R,5R)-5-Chloro-3-hydroxy-2-(1-oxo-indan-4-yloxymethyl)-cyclopentyl]-hept-5-enoic acid], the concentration giving a half-maximal response (EC50) on hEP2 [1] was 6.5 nM; at hEP2 [4], 51 nM. The Ki on hEP2 [3] stood at 129 nM; at hEP4 [5] it was 2830 nM.

With `O=C(O)CCC/C=C\C[C@@H]1[C@@H](COc2cccc3c2CCC3O)[C@H](O)C[C@H]1Cl` (stereo partly drawn) [Example 59, (Z)-7-[(1R,2S,3R,5R)-5-Chloro-3-hydroxy-2-(1-hydroxy-indan-4-yloxymethyl)-cyclopentyl]-hept-5-enoic acid], the EC50 stood at 1.2 nM at hEP2 [1] and 108 nM at hEP2 [4]. Moreover, the Ki came to 139 nM at hEP2 [3] and 3000 nM at hEP4 [5].

With `O=C(O)CCC/C=C\C[C@@H]1[C@@H](COc2ccccc2CCO)[C@H](O)C[C@H]1Cl` [Example 61, (Z)-7-{(1R,2S,3R,5R)-5-Chloro-3-hydroxy-2-[2-(2-hydroxy-ethyl)-phenoxymethyl]-cyclopentyl}-hept-5-enoic acid], the 50% effective concentration (EC50) on hEP2 [1] is 128 nM; on hEP4 [2] it was more than 10000 nM; on hEP2 [4], 5980 nM. In addition, the inhibitory constant (Ki) at hEP2 [3] is 3910 nM.

Take `O=C(O)CCC/C=C\C[C@@H]1[C@@H](COc2cccc(CCO)c2)[C@H](O)C[C@H]1Cl` [Example 62, (Z)-7-{(1R,2S,3R,5R)-5-Chloro-3-hydroxy-2-[3-(2-hydroxy-ethyl)-phenoxymethyl]-cyclopentyl}-hept-5-enoic acid]: the figures for the concentration for a half-maximal effect (EC50) at hEP2 [1], at hEP4 [2] and at hEP2 [4] were 18 nM, more than 10000 nM and 1970 nM, respectively. At hEP2 [3], the Ki worked out at 161 nM.

For the molecule `O=C(O)CCC/C=C\C[C@@H]1[C@@H](COc2ccc(CCO)cc2)[C@H](O)C[C@H]1Cl` [Example 63, (Z)-7-{(1R,2S,3R,5R)-5-Chloro-3-hydroxy-2-[4-(2-hydroxy-ethyl)-phenoxymethyl]-cyclopentyl}-hept-5-enoic acid], the EC50 at hEP4 [2] and on hEP2 [4] was more than 10000 nM each time. On hEP2 [3], the inhibition constant Ki was 1990 nM.
